Results published in ChEMBL document CHEMBL1153552, “Comparative in vitro pharmacodynamics of caspofungin, micafungin, and anidulafungin against germinated and nongerminated Aspergillus conidia” (2008).
The source made the active and inactive calls. The calls are words filed in the database; no cut-off is given here.

Columns and labels:
Aspergillus terreus [1] = test: Antifungal activity against germinated Aspergillus terreus assessed as absence of visual fungal growth at 128 ug/mL; assay type: functional, organism-based
Aspergillus fumigatus [2] = test: Decrease in nongerminated Aspergillus fumigatus metabolism assessed as metabolic activity at 64 ug/mL after 48 hrs by XTT assay; assay type: functional; design: scale not given: the % may be the effect or the level left
Aspergillus flavus [3] = test: Decrease in nongerminated Aspergillus flavus metabolism assessed as metabolic activity at 128 ug/mL after 48 hrs by XTT assay; assay type: functional; design: scale not given: the % may be the effect or the level left
Aspergillus terreus [4] = test: Decrease in nongerminated Aspergillus terreus metabolism assessed as metabolic activity at 128 ug/mL after 48 hrs by XTT assay; assay type: functional; design: scale not given: the % may be the effect or the level left
Aspergillus flavus [5] = test: Effect on germinated Aspergillus flavus metabolic activity assessed as drug concentration at which fungal metabolic activity occurs after 2 hrs by XTT assay; assay type: functional
Aspergillus terreus [6] = test: Effect on germinated Aspergillus terreus metabolic activity assessed as drug concentration at which fungal metabolic activity occurs after 2 hrs by XTT assay; assay type: functional
Aspergillus flavus [7] = test: Decrease in germinated Aspergillus flavus metabolism assessed as metabolic activity at 64 ug/mL after 48 hrs by XTT assay; assay type: functional; design: scale not given: the % may be the effect or the level left
Aspergillus terreus [8] = test: Antifungal activity against germinated Aspergillus terreus assessed as lowest drug concentration that produced short, stubby and highly branched hyphae after 48 hrs by microscopic analysis; assay type: functional; settings: read-out: MEC
Aspergillus flavus [9] = test: Effect on Aspergillus flavus metabolic activity assessed number of twofold drug dilutions required for germinated fungal metabolic activity to nongerminated fungal metabolic activity; assay type: functional
Aspergillus fumigatus [10] = test: Decrease in germinated Aspergillus fumigatus metabolism assessed as metabolic activity at 128 ug/mL after 48 hrs by XTT assay; assay type: functional; design: scale not given: the % may be the effect or the level left
Aspergillus flavus [11] = test: Ratio of log2 of MEC for germinated Aspergillus flavus to log2 of MEC for nongerminated Aspergillus flavus; assay type: functional
Aspergillus flavus [12] = test: Antifungal activity against nongerminated Aspergillus flavus assessed as lowest drug concentration that produced short, stubby and highly branched hyphae after 48 hrs by microscopic analysis; assay type: functional; settings: read-out: MEC
Aspergillus fumigatus [13] = test: Effect on germinated Aspergillus fumigatus metabolic activity assessed as drug concentration at which fungal metabolic activity occurs after 2 hrs by XTT assay; assay type: functional
Aspergillus fumigatus [14] = test: Decrease in nongerminated Aspergillus fumigatus metabolism assessed as metabolic activity at 128 ug/mL after 48 hrs by XTT assay; assay type: functional; design: scale not given: the % may be the effect or the level left
Aspergillus flavus [15] = test: Induction of maximal metabolic inhibition in germinated Aspergillus flavus assessed as minimal metabolic activity Ymin after 2 hrs by XTT assay; assay type: functional; design: scale not given: the % may be the effect or the level left
Aspergillus terreus [16] = test: Antifungal activity against nongerminated Aspergillus terreus assessed as absence of visual fungal growth at 128 ug/mL; assay type: functional, organism-based
Aspergillus flavus [17] = test: Decrease in germinated Aspergillus flavus metabolism assessed as metabolic activity at 128 ug/mL after 48 hrs by XTT assay; assay type: functional; design: scale not given: the % may be the effect or the level left
Aspergillus fumigatus [18] = test: Ratio of log2 of MEC for germinated Aspergillus fumigatus to log2 of MEC for nongerminated Aspergillus fumigatus; assay type: functional
Aspergillus flavus [19] = test: Antifungal activity against germinated Aspergillus flavus assessed as absence of visual fungal growth at 128 ug/mL; assay type: functional, organism-based
Aspergillus fumigatus [20] = test: Effect on Aspergillus fumigatus metabolic activity assessed number of twofold drug dilutions required for germinated fungal metabolic activity to nongerminated fungal metabolic activity; assay type: functional
Aspergillus flavus [21] = test: Antifungal activity against nongerminated Aspergillus flavus assessed as absence of visual fungal growth at 128 ug/mL; assay type: functional, organism-based
Aspergillus fumigatus [22] = test: Decrease in germinated Aspergillus fumigatus metabolism assessed as metabolic activity at 64 ug/mL after 48 hrs by XTT assay; assay type: functional; design: scale not given: the % may be the effect or the level left
Aspergillus fumigatus [23] = test: Antifungal activity against germinated Aspergillus fumigatus assessed as lowest drug concentration that produced short, stubby and highly branched hyphae after 48 hrs by microscopic analysis; assay type: functional; settings: read-out: MEC
Aspergillus fumigatus [24] = test: Antifungal activity against nongerminated Aspergillus fumigatus assessed as lowest drug concentration that produced short, stubby and highly branched hyphae after 48 hrs by microscopic analysis; assay type: functional; settings: read-out: MEC
Aspergillus terreus [25] = test: Decrease in nongerminated Aspergillus terreus metabolism assessed as metabolic activity at 64 ug/mL after 48 hrs by XTT assay; assay type: functional; design: scale not given: the % may be the effect or the level left
Aspergillus terreus [26] = test: Antifungal activity against nongerminated Aspergillus terreus assessed as lowest drug concentration that produced short, stubby and highly branched hyphae after 48 hrs by microscopic analysis; assay type: functional; settings: read-out: MEC
Aspergillus terreus [27] = test: Induction of maximal metabolic inhibition in nongerminated Aspergillus terreus assessed as minimal metabolic activity Ymin after 2 hrs by XTT assay; assay type: functional; design: scale not given: the % may be the effect or the level left
Aspergillus fumigatus [28] = test: Induction of maximal metabolic inhibition in nongerminated Aspergillus fumigatus assessed as minimal metabolic activity Ymin after 2 hrs by XTT assay; assay type: functional; design: scale not given: the % may be the effect or the level left
Aspergillus terreus [29] = test: Induction of maximal metabolic inhibition in germinated Aspergillus terreus assessed as minimal metabolic activity Ymin after 2 hrs by XTT assay; assay type: functional; design: scale not given: the % may be the effect or the level left
Aspergillus flavus [30] = test: Induction of maximal metabolic inhibition in nongerminated Aspergillus flavus assessed as minimal metabolic activity Ymin after 2 hrs by XTT assay; assay type: functional; design: scale not given: the % may be the effect or the level left
Aspergillus terreus [31] = test: Effect on Aspergillus terreus metabolic activity assessed number of twofold drug dilutions required for germinated fungal metabolic activity to nongerminated fungal metabolic activity; assay type: functional
Aspergillus terreus [32] = test: Decrease in germinated Aspergillus terreus metabolism assessed as metabolic activity at 64 ug/mL after 48 hrs by XTT assay; assay type: functional; design: scale not given: the % may be the effect or the level left
Aspergillus fumigatus [33] = test: Induction of maximal metabolic inhibition in germinated Aspergillus fumigatus assessed as minimal metabolic activity Ymin after 2 hrs by XTT assay; assay type: functional; design: scale not given: the % may be the effect or the level left
Aspergillus fumigatus [34] = test: Antifungal activity against nongerminated Aspergillus fumigatus assessed as absence of visual fungal growth at 128 ug/mL; assay type: functional, organism-based
Aspergillus flavus [35] = test: Antifungal activity against germinated Aspergillus flavus assessed as lowest drug concentration that produced short, stubby and highly branched hyphae after 48 hrs by microscopic analysis; assay type: functional; settings: read-out: MEC
Aspergillus flavus [36] = test: Effect on nongerminated Aspergillus flavus metabolic activity assessed as drug concentration at which fungal metabolic activity occurs after 2 hrs by XTT assay; assay type: functional
Aspergillus terreus [37] = test: Effect on nongerminated Aspergillus terreus metabolic activity assessed as drug concentration at which fungal metabolic activity occurs after 2 hrs by XTT assay; assay type: functional
Aspergillus fumigatus [38] = test: Antifungal activity against germinated Aspergillus fumigatus assessed as absence of visual fungal growth at 128 ug/mL; assay type: functional, organism-based
Aspergillus flavus [39] = test: Decrease in nongerminated Aspergillus flavus metabolism assessed as metabolic activity at 64 ug/mL after 48 hrs by XTT assay; assay type: functional; design: scale not given: the % may be the effect or the level left
Aspergillus fumigatus [40] = test: Effect on nongerminated Aspergillus fumigatus metabolic activity assessed as drug concentration at which fungal metabolic activity occurs after 2 hrs by XTT assay; assay type: functional
Aspergillus terreus [41] = test: Ratio of log2 of MEC for germinated Aspergillus terreus to log2 of MEC for nongerminated Aspergillus terreus; assay type: functional
Aspergillus terreus [42] = test: Decrease in germinated Aspergillus terreus metabolism assessed as metabolic activity at 128 ug/mL after 48 hrs by XTT assay; assay type: functional; design: scale not given: the % may be the effect or the level left

Question: For CC[C@H](C)C[C@H](C)CCCCCCCCC(=O)N[C@H]1C[C@@H](O)[C@@H](NCCN)NC(=O)[C@@H]2[C@@H](O)CCN2C(=O)[C@H]([C@H](O)CCN)NC(=O)[C@H]([C@H](O)[C@@H](O)c2ccc(O)cc2)NC(=O)[C@@H]2C[C@@H](O)CN2C(=O)[C@H]([C@@H](C)O)NC1=O [CASPOFUNGIN], which Activity (Aspergillus terreus [1]) is on record?
Answer: Active

Question: And the Activity (Aspergillus fumigatus [2])?
Answer: <5%

Question: What about the Activity (Aspergillus flavus [3]) of the same compound?
Answer: <5%

Question: And the Activity (Aspergillus terreus [4])?
Answer: <5%

Question: And the EC5 (Aspergillus flavus [5])?
Answer: 0.87 µg/mL

Question: What about the EC5 (Aspergillus terreus [6]) of the same compound?
Answer: 1.06 µg/mL

Question: What about the Activity (Aspergillus flavus [7]) of the same compound?
Answer: <5%

Question: What about the minimal effective concentration (Aspergillus terreus [8]) of the same compound?
Answer: 1 µg/mL

Question: What about the Ratio (Aspergillus flavus [9]) of the same compound?
Answer: 0.43

Question: And the Activity (Aspergillus fumigatus [10])?
Answer: <5%

Question: And the Ratio (Aspergillus flavus [11])?
Answer: 0

Question: And the minimal effective concentration (Aspergillus flavus [12])?
Answer: 1 µg/mL

Question: And the EC5 (Aspergillus fumigatus [13])?
Answer: 1.2 µg/mL

Question: What about the Activity (Aspergillus fumigatus [14]) of the same compound?
Answer: <5%

Question: And the Activity (Aspergillus flavus [15])?
Answer: 21%

Question: What about the Activity (Aspergillus terreus [16]) of the same compound?
Answer: Active

Question: And the Activity (Aspergillus flavus [17])?
Answer: <5%

Question: And the Ratio (Aspergillus fumigatus [18])?
Answer: 0

Question: What about the Activity (Aspergillus flavus [19]) of the same compound?
Answer: Active

Question: What about the Ratio (Aspergillus fumigatus [20]) of the same compound?
Answer: 0.96

Question: And the Activity (Aspergillus flavus [21])?
Answer: Active

Question: What about the Activity (Aspergillus fumigatus [22]) of the same compound?
Answer: <5%

Question: And the minimal effective concentration (Aspergillus fumigatus [23])?
Answer: 1 µg/mL

Question: What about the minimal effective concentration (Aspergillus fumigatus [24]) of the same compound?
Answer: 1 µg/mL

Question: And the Activity (Aspergillus terreus [25])?
Answer: <5%

Question: What about the minimal effective concentration (Aspergillus terreus [26]) of the same compound?
Answer: 0.5 µg/mL

Question: What about the Activity (Aspergillus terreus [27]) of the same compound?
Answer: 34%

Question: And the Activity (Aspergillus fumigatus [28])?
Answer: 26%

Question: What about the Activity (Aspergillus terreus [29]) of the same compound?
Answer: 35%

Question: And the Activity (Aspergillus flavus [30])?
Answer: 17%

Question: And the Ratio (Aspergillus terreus [31])?
Answer: 1.12

Question: What about the Activity (Aspergillus terreus [32]) of the same compound?
Answer: <5%

Question: And the Activity (Aspergillus fumigatus [33])?
Answer: 26%

Question: What about the Activity (Aspergillus fumigatus [34]) of the same compound?
Answer: Active

Question: What about the minimal effective concentration (Aspergillus flavus [35]) of the same compound?
Answer: 1 µg/mL

Question: And the EC5 (Aspergillus flavus [36])?
Answer: 0.64 µg/mL

Question: What about the EC5 (Aspergillus terreus [37]) of the same compound?
Answer: 0.65 µg/mL

Question: And the Activity (Aspergillus fumigatus [38])?
Answer: Active

Question: What about the Activity (Aspergillus flavus [39]) of the same compound?
Answer: <5%

Question: What about the EC5 (Aspergillus fumigatus [40]) of the same compound?
Answer: 0.67 µg/mL

Question: What about the Ratio (Aspergillus terreus [41]) of the same compound?
Answer: 1

Question: And the Activity (Aspergillus terreus [42])?
Answer: <5%
